Results published in patent US11185531B2, “Arginine methyltransferase inhibitors and uses thereof” (Epizyme, Inc., priority 2013, dated 2021).
pIC50: −log10 of the molar value.

biological target: T1, human PRMT3 (Homo sapiens, UniProt O60678); assay: PRMT3 Biochemical Assay (3H-SAM Flashplate, peptide substrate); conditions: 30 min preincubation
T1 construct: GST-tagged PRMT3; made in house; host or cells: E. coli BL21(DE3) Gold
Description: Peptide containing the classic RMT substrate motif was synthesized with an N-terminal linker-affinity tag motif and a C-terminal amide cap by 21st Century Biochemicals. The peptide was purified by high-performance liquid chromatography (HPLC) to greater than 95% purity and confirmed by liquid chromatography mass spectrometry (LC-MS). The sequence was Biot-Ahx-[…]-amide (SEQ ID NO:11).
Full-length human PRMT3 (NM_005788.3) isoform 1 transcript clone was amplified from an HEK 293 cDNA library and subcloned into pGEX-KG (GE Life Sciences). The resulting construct encodes an N-terminal GST tag and a thrombin cleavage sequence
GST-tagged PRMT3 was eluted with 50 mM Tris, 2 mM glutathione, pH 7.1 and 50 mM Tris, 20 mM glutathione, pH 7.1. Pooled fractions were dialysed in 20 mM Tris, 50 mM NaCl, 5% glycerol, 1 mM EDTA, 1 mM DTT, pH7.5 (Buffer B) and applied to a Q Sepharose Fast Flow column. GST-tagged PRMT3 was eluted by 500 mM NaCl in buffer B. Pooled fractions were dialyzed in 25 mM phosphate buffer, 100 mM NaCl, 5% glycerol, 2 mM DTT, pH 6.8 (Buffer C) and loaded on to a ceramic hydroxyapatite column. GST-tagged PRMT3 eluted with 25-400 mM phosphate in buffer C. Protein was concentrated and buffer was exchanged to 20 mM Tris, 150 mM NaCl, 5% glycerol, 5 mM β-mercaptoethanol, pH7.8 by ultrafiltration. The purity of recovered protein was 70%.
General Procedure for PRMT3 Enzyme Assays on Peptide Substrates.
The assays were all performed in a buffer consisting of 20 mM Bicine (pH=7.6), 1 mM TCEP, 0.005% BSG, and 0.002% Tween 20, prepared on the day of use. Compounds in 100% DMSO (1 ul) were spotted into a polypropylene 384-well V-bottom plates (Greiner) using a Platemate Plus outfitted with a 384-channel head (Thermo Scientific). DMSO (1 ul) was added to Columns 11, 12, 23, 24, rows A-H for the maximum signal control and 1 ul of SAH, a known product and inhibitor of PRMT3, was added to columns 11, 12, 23, 24, rows I-P for the minimum signal control. A cocktail (40 ul) containing the PRMT3 enzyme was added by Multidrop Combi (Thermo-Fisher). The compounds were allowed to incubate with PRMT3 for 30 min at room temperature, then a cocktail (10 ul) containing SAM and peptide was added to initiate the reaction (final volume=51 ul). The final concentrations of the components were as follows: PRMT3 was 0.5 nM, ^3H-SAM was 100 nM, non-radiolabeled SAM was 1.8 uM, peptide was 330 nM, SAH in the minimum signal control wells was 1 mM, and the DMSO concentration was 2%. The assays were stopped by the addition of potassium chloride (10 ul) to a final concentration of 100 mM. 50 ul of the reaction in the 384-well polypropylene plate was then transferred to a 384-well Flashplate and the biotinylated peptides were allowed to bind to the streptavidin surface for at least 1 hour before being washed once with 0.1% Tween20 in a Biotek ELx405 plate washer. The plates were then read in a PerkinElmer TopCount plate reader to measure the quantity of ^3H-labeled peptide bound to the Flashplate surface, measured as disintegrations per minute (dpm) or alternatively, referred to as counts per minute (cpm).
Where dpm=disintegrations per minute, cmpd=signal in assay well, and min and max are the respective minimum and maximum signal controls.
Where top and bottom are the normally allowed to float, but may be fixed at 100 or 0 respectively in a 3-parameter fit. The Hill Coefficient normally allowed to float but may also be fixed at 1 in a 3-parameter fit. Y is the % inhibition and X is the compound concentration.

T1 sequence (O60678 with tags, fused parts or gaps): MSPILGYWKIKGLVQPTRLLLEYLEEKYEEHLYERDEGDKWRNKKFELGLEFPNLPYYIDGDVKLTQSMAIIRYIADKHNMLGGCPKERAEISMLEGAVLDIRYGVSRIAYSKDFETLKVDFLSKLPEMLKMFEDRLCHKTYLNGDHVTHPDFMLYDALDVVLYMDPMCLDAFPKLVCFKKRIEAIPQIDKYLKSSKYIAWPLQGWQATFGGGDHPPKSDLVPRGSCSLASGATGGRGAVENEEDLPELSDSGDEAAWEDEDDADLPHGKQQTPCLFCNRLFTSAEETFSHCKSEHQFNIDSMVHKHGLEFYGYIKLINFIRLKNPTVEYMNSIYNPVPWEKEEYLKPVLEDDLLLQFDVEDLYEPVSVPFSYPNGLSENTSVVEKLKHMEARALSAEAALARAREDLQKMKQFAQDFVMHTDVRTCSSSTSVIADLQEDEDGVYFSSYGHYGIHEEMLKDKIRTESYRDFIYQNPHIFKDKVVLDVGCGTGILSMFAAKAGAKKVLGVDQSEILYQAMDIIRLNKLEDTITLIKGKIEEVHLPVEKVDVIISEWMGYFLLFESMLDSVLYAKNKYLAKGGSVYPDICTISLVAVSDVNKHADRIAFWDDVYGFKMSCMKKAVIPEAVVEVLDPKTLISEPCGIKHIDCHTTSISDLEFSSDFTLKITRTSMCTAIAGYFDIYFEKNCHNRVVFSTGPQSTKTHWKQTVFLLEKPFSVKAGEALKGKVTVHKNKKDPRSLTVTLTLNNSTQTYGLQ

Compared with `Cc1ccc(/C=C/c2n[nH]cc2CN(C)CCN)cc1` [Compound 8], `CN(CCN)Cc1c[nH]nc1/C=C/c1ccc(C(F)(F)F)cc1` [Compound 18] is higher in pIC50: 5.00 to 5.52 for the first, 5.52 to 6.00 for the second. The second is the more potent here.

`CNCCN(C)Cc1c[nH]nc1/C=C/c1ccc(OC)cc1` [Compound 7] and `CNCCN(C)Cc1c[nH]nc1/C=C/c1ccc(C(F)(F)F)cc1` [Compound 6] fall in the same range of pIC50: 5.00 to 5.52 for the first, 5.00 to 5.52 for the second.

First: CN(CCN)Cc1c[nH]nc1/C=C/c1ccc(F)cc1F [Compound 13]
Second: CN(CCN)Cc1c[nH]nc1/C=C/c1cccc(F)c1 [Compound 20]
The pIC50 of the first is lower: 5.00 to 5.52 for the first, 5.52 to 6.00 for the second. The second is the more potent here.

`CN(CCN)Cc1c[nH]nc1/C=C/c1cc(F)cc(F)c1` [Compound 15] and `COc1cc(/C=C/c2n[nH]cc2CN(C)CCN)cc(OC)c1` [Compound 11] fall in the same range of pIC50: 5.52 to 6.00 for the first, 5.52 to 6.00 for the second.

First: CNCCN(C)Cc1c[nH]nc1C#Cc1ccc(C(C)(C)C)cc1 [Compound 2]
Second: CNCCN(C)Cc1c[nH]nc1C#Cc1ccccc1 [Compound 3]
The pIC50 of the first is higher: 5.52 to 6.00 for the first, 5.00 to 5.52 for the second.

Compared with `CN(CCN)Cc1c[nH]nc1CCc1ccc(F)cc1` [Compound 23, N^1-((3-(4-fluorophenethyl)-1H-pyrazol-4-yl)methyl)-N^1-methylethane-1,2-diamine], `COc1cccc(/C=C/c2n[nH]cc2CN(C)CCN)c1` [Compound 17] is higher in pIC50: 5.00 to 5.52 for the first, 5.52 to 6.00 for the second.

Compared with `CNCCN(C)Cc1c[nH]nc1/C=C/c1ccc(-c2ccccc2)cc1` [Compound 5], `CN(CCN)Cc1c[nH]nc1/C=C/c1cccc(C(F)(F)F)c1` [Compound 16] is lower in pIC50: 5.52 to 6.00 for the first, 5.00 to 5.52 for the second.

`COC/C=C/c1n[nH]cc1CN(C)CCN` [Compound 19] and `CN(CCN)Cc1c[nH]nc1C1CCCCC1` [Compound 22] fall in the same range of pIC50: 5.00 to 5.52 for the first, 5.00 to 5.52 for the second.

`CN(CCN)Cc1c[nH]nc1/C=C/c1cc(C(F)(F)F)cc(C(F)(F)F)c1` [Compound 14] and `CNCCN(C)Cc1c[nH]nc1C#Cc1cccc(OC)c1` [Compound 1] fall in the same range of pIC50: 5.00 to 5.52 for the first, 5.00 to 5.52 for the second.

system: mono-methyl arginine in RKO cells; assay: RKO Methylation Assay, In Cell Western for mono-methyl arginine; type: cell-based; conditions: Homo sapiens, 72 hours, percent activation of mono-methyl arginine signal
Description: RKO adherent cells were purchased from ATCC (American Type Culture Collection), Manassas, Va., USA. DMEM/Glutamax medium, penicillin-streptomycin, heat inactivated fetal bovine serum, 0.05% trypsin and D-PBS were purchased from Life Technologies, Grand Island, N.Y., USA. Odyssey blocking buffer, 800 CW goat anti-rabbit IgG (H+L) antibody, and Licor Odyssey infrared scanner were purchased from Licor Biosciences, Lincoln, Nebr., USA. Mono-methyl arginine antibody was purchased from Cell Signaling Technology, Danvers, Mass., USA. Methanol was purchased from VWR, Franklin, Mass., USA. 10% Tween 20 was purchased from KPL, Inc., Gaithersburg, Md., USA. DRAQ5 was purchased from Biostatus Limited, Leicestershire, UK.
RKO adherent cells were maintained in growth medium (DMEM/Glutamax medium supplemented with 10% v/v heat inactivated fetal bovine serum and 100 units/mL penicillin-streptomycin) and cultured at 37° C. under 5% CO2.
Cell Treatment, in Cell Western (ICW) for Detection of Mono-Methyl Arginine and DNA Content.
RKO cells were seeded in assay medium at a concentration of 20,000 cells per mL to a poly-D-lysine coated 384 well culture plate (BD Biosciences 356697) with 50 μL per well. Compound (100 nL) from a 96-well source plate was added directly to 384 well cell plate. Plates were incubated at 37° C., 5% CO2 for 72 hours. After three days of incubation, plates were brought to room temperature outside of the incubator for ten minutes and blotted on paper towels to remove cell media. 50 μL of ice cold 100% methanol was added directly to each well and incubated for 30 min at room temperature. After 30 min, plates were transferred to a Biotek EL406 plate washer and washed 2 times with 100 μL per well of wash buffer (IX PBS). Next 60 μL per well of Odyssey blocking buffer (Odyssey Buffer with 0.1% Tween 20 (v/v)) were added to each plate and incubated 1 hour at room temperature. Blocking buffer was removed and 20 μL per well of primary antibody was added (mono-methyl arginine diluted 1:200 in Odyssey buffer with 0.1% Tween 20 (v/v)) and plates were incubated overnight (16 hours) at 4° C. Plates were washed 5 times with 100 μL per well of wash buffer. Next 20 μL per well of secondary antibody was added (1:200 800 CW goat anti-rabbit IgG (H+L) antibody, 1:1000 DRAQ5 (Biostatus limited) in Odyssey buffer with 0.1% Tween 20 (v/v)) and incubated for 1 hour at room temperature. The plates were washed 5 times with 100 μL per well wash buffer then 2 times with 100 μL per well of water. Plates were allowed to dry at room temperature then imaged on the Licor Odyssey machine which measures integrated intensity at 700 nm and 800 nm wavelengths. Both 700 and 800 channels were scanned.
First, the ratio for each well was determined by:
Each plate included fourteen control wells of DMSO only treatment (minimum activation) as well as fourteen control wells for maximum activation treated with 20 μM of a reference compound. The average of the ratio values for each control type was calculated and used to determine the percent activation for each test well in the plate. Reference compound was serially diluted three-fold in DMSO for a total of nine test concentrations, beginning at 20 μM. Percent activation was determined and EC30 curves were generated using triplicate wells per concentration of compound.

`CC1CCC(c2n[nH]cc2CN(C)CCN)CC1` (stereo not drawn) [Compound 37, N^1-methyl-N^1-((3-(4-methylcyclohexyl)-1H-pyrazol-4-yl)methyl)ethane-1,2-diamine] and `CC1CCC(c2c[nH]nc2CN(C)CCN)CC1` (stereo not drawn) [Compound 35] cannot be ordered by EC30: < 3 µM for the first, < 3 µM for the second.

Going from `CN(CCN)Cc1c[nH]nc1CCc1ccc(F)cc1` [Compound 23, N^1-((3-(4-fluorophenethyl)-1H-pyrazol-4-yl)methyl)-N^1-methylethane-1,2-diamine] to `CCCc1n[nH]cc1CN(C)CCN` [Compound 29], the EC30 rises from < 3 µM to > 12 µM.

`CNCCN(C)Cc1c[nH]nc1C1CCN(C(=O)Cc2ccccc2)CC1` [Compound 32] and `CNCCN(C)Cc1c[nH]nc1C1CCN(C(=O)C(C)C)CC1` [Compound 34] cannot be ordered by EC30: < 3 µM for the first, < 3 µM for the second.

First: CN(CCN)Cc1c[nH]nc1C1CCCC1 [Compound 31]
Second: CN(CCN)Cc1c[nH]nc1C1CCCCC1 [Compound 22]
The EC30 of the first is higher: > 12 µM for the first, < 3 µM for the second.

Compared with `CN(CCN)Cc1n[nH]cc1C1CCCCC1` [Compound 33], `CN(CCN)Cc1n[nH]cc1C1CCC(C)(C)CC1` [Compound 36] is lower in EC30: 3.01 to 12 µM for the first, < 3 µM for the second.

Compared with `CN(CCN)Cc1c[nH]nc1C1=CCOCC1` [Compound 10], `CN(CCN)Cc1c[nH]nc1C1=CCCC1` [Compound 25] is lower in EC30: > 12 µM for the first, 3.01 to 12 µM for the second.

First: CN(CCN)Cc1c[nH]nc1C1CCC1 [Compound 26]
Second: CN(CCN)Cc1c[nH]nc1C1CCC(C)(C)CC1 [Compound 38, N^1-((3-(4,4-dimethylcyclohexyl)-1H-pyrazol-4-yl)methyl)-N^1-methylethane-1,2-diamine]
The EC30 of the first is higher: > 12 µM for the first, < 3 µM for the second.

Compared with `CNCCN(C)Cc1c[nH]nc1C1CCN(C)CC1` [Compound 41], `CNCCN(C)Cc1c[nH]nc1C1CCN(CC(C)C)CC1` [Compound 39, N^1-((3-(1-isobutylpiperidin-4-yl)-1H-pyrazol-4-yl)methyl)-N^1,N^2-dimethylethane-1,2-diamine] is lower in EC30: > 12 µM for the first, < 3 µM for the second.

First: CN(CCN)Cc1c[nH]nc1/C=C/Cc1ccccc1 [Compound 24]
Second: Cc1n[nH]cc1CN(C)CCN [Compound 30]
The EC30 of the first is lower: < 3 µM for the first, > 12 µM for the second.

`CNCCN(C)Cc1c[nH]nc1C1CCNCC1` [Compound 42] and `CC(C)c1n[nH]cc1CN(C)CCN` [Compound 21] cannot be ordered by EC30: > 12 µM for the first, > 12 µM for the second.

For `CN(CCN)Cc1n[nH]cc1C1CCC(N2CCOCC2)CC1` (stereo not drawn) [Compound 44, N^1-methyl-N^1-((4-(4-morpholinocyclohexyl)-1H-pyrazol-3-yl)methyl)ethane-1,2-diamine], the EC30 was 3.01 to 12 µM.
